We go through four molecules from patent US10103402B2, “Liquid phenothiazine catholytes for non-aqueous redox flow batteries” (University of Kentucky Research Foundation, priority 2015, dated 2018).

Where only a bound is given, the exact number is not on record here.

The conditions of series [1]: cited from earlier work.
Series [2] in a line: Solubility / miscibility in battery electrolyte and organic solvents. It counts as physicochemical. The note with it: for Concentration corresponding to 50 wt. % miscibility: 1.2 M LiPF6 in EC/EMC (3:7 wt. ratio). The source says: The compounds of the present invention can be prepared by deprotonation of phenothiazine and a subsequent SN2 reaction with a corresponding alkyl halide. This process has produced MEPT and MEEPT in good yields. The compounds were isolated as colorless oils that were miscible with a variety of organic solvents. Both derivatives were miscible up to 50 wt. % in the common battery electrolyte, 1.2 M LiPF6 in ethylene carbonate/ethyl methyl carbonate (EC/EMC, 3:7 wt. ratio) (Table 1), which corresponds to a concentration of ca. 2 M. In contrast, the solubility of EPT is limited to 0.1 M in the same electrolyte.
Next, to evaluate MEPT and MEEPT as cathode candidates for RFBs, the performance of the redox-active species over multiple charge and discharge cycles was analyzed, albeit in a static environment, using galvanostatic cycling in MEPT/Li and MEEPT/Li coin cells. Here we employed the electrolyte 0.5 M LiBF4 in PC in which both MEPT and MEEPT are miscible at as high as 50 wt. % (Table 1). The positive electrode was composed of graphite felt soaked in catholyte consisting of 10 mM active species in 0.5 M LiBF4 in PC, and Li metal was employed as the negative electrode. The electrodes were separated by a lithiated Nafion membrane. The coin cells were cycled between 3.2 and 3.8 V at a rate of C/5 up to 100% SOC so that the first oxidation would be accessed. The theoretical capacities of EPT, MEPT, and MEEPT are 118 mAh/g, 104 mAh/g, and 89 mAh/g, respectively. The charge and discharge plateaus occur in accordance with the potentials determined by CV; they represent the formation and reversible reduction of the respective radical cations. […] The gap between the charge and discharge capacities may result from crossover of the charged species. […] EPT, MEPT, and MEEPT retained ca. 76%, 68% and 67%, respectively, of the original charge capacity after 30 cycles, over which time the coulombic efficiencies for all three catholytes stabilized at ca. 90%.

Series [3] in a line: Cyclic voltammetry, half-wave oxidation potentials. It counts as physicochemical. The note with it: for E1/2^+/0 vs. Li^+/0, LiBF4 in PC: 10 mM analyte in 0.5M LiBF4/PC, 100 mV/s; for Oxidation potential higher than EPT, LiPF6/EC/EMC: difference of E1/2^+/0 to EPT in LiPF6/EC/EMC; for Oxidation potential higher than EPT, TBA-PF6/DCM: difference of E1/2^+/0 to EPT in TBA-PF6/DCM. How it is done:
The compounds of the present invention provide for components of a redox flow battery system, particularly as part of a catholyte composition. The studies described herein detail their effectiveness for such. The position and reversibility of redox events was determined by cyclic voltammetry (CV), performed in dichloromethane (DCM) containing 0.1 M tetra(n-butyl)ammonium hexafluorophosphate (TBA-PF6) (FIG. 7), in EC/EMC (3:7) containing 1.2 M LiPF6 (FIG. 2), or in propylene carbonate (PC) containing 0.5 M LiBF4 (FIG. 2). Both compounds show reversible first oxidations in all electrolytes. In TBA-PF6/DCM, MEPT (E1/2^+/0=0.30 V vs. Cp2Fe^+/0) and MEEPT (E1/2^+/0=0.29 V vs. Cp2Fe^+/0) oxidize at 0.03 and 0.02 V higher, respectively, than EPT (Table 1). In contrast, though the oxidation potentials of the new compounds were still higher than that of EPT in LiPF6/EC/EMC, a larger difference was observed: MEPT (E1/2^+/0=3.56 V vs. Li^+/0) and MEEPT (E1/2^+/0=3.60 V vs. Li^+/0) oxidized at […] higher, respectively, than EPT (Table 1). The increase in oxidation potential in the lithium-based electrolytes can be attributed to the coordination, through the oligoether side chain, of MEPT to Li^+, a characteristic that is even more pronounced in the case of MEEPT.
(§1) Cyclic voltammetry (CV) experiments were performed using a CH Instruments 600D potentiostat using a three-electrode system in either 100 mM TBAPF6 in anhydrous DCM or in 1.2 M LiPF6 in ethylene carbonate (EC)/ethyl methyl carbonate (EMC) (3:7 wt. ratio) containing […] redox shuttle. Cyclic voltammograms were also recorded in 0.5 M LiBF4 in propylene carbonate (PC) containing 10 mM analyte. Glassy carbon was used as the working electrode, platinum wire as the counter electrode and either freshly anodized Ag/AgCl (in DCM) or lithium metal (in battery electrolyte) as reference electrodes. Oxidation potentials are reported relative to ferrocenium/ferrocene) (Cp2Fe^+/0) in DCM or to Li^+/0 in battery electrolyte. Voltammograms were recorded at a scan rate of 100 mV/s. To determine diffusion coefficients, voltammograms were recorded at variable rates between 5 and 500 mV/s at analyte concentration of 80 mM in 1.2 M LiPF6 in EC/EMC and 10 mM in 0.5 M LiBF4 in PC.

A short description of series [4]: Cyclic voltammetry at variable scan rates, diffusion coefficients. It counts as physicochemical. Particulars: for Diffusion Coefficient, neutral, TBA-PF6 in DCM / Diffusion Coefficient, oxidized, TBA-PF6 in DCM: 10 mM analyte in 100 mM TBA-PF6/DCM, 10 to 200 mV/s; for Diffusion Coefficient, neutral, LiBF4 in PC / Diffusion Coefficient, oxidized, LiBF4 in PC: 10 mM analyte in 0.5M LiBF4/PC; for Diffusion Coefficient, neutral, LiBF4 in PC / Diffusion Coefficient, neutral, LiPF6 in EC/EMC / Diffusion Coefficient, oxidized, LiBF4 in PC / Diffusion Coefficient, oxidized, LiPF6 in EC/EMC: 5 to 500 mV/s; for Diffusion Coefficient, neutral, LiPF6 in EC/EMC / Diffusion Coefficient, oxidized, LiPF6 in EC/EMC: 80 mM analyte in 1.2M LiPF6 in EC/EMC (3:7). How it is done: MEPT and MEEPT were subjected to CV experiments at variable scan rates in the carbonate-based electrolytes and DCM to determine their diffusion coefficients (FIG. 2, 8). At 80 mM, MEPT and MEEPT diffuse more slowly than EPT. This observation can be explained by the interaction of MEPT and MEEPT with a lithium ion from the electrolyte, which increases the size/molecular weight of the shuttle. Because the additional oxygen in MEEPT enhances the ability for Li^+ chelation, this effect is posited to be responsible for the further reduction in its diffusion rate.
as §1

The conditions of series [5]: carbonate-based electrolytes; cited from earlier work.
Series [6] can be described thus: Cyclic voltammetry, half-wave oxidation potentials. It counts as physicochemical. Particulars: for E1/2^+/0 vs. Cp2Fe^+/0 in TBA-PF6 in DCM: 80 mM analyte in 100 mM TBA-PF6/DCM, 100 mV/s scan rate; for E1/2^+/0 vs. Li^+/0, LiPF6 in EC/EMC: 80 mM analyte in 1.2M LiPF6 in EC/EMC (3:7 wt. ratio), 100 mV/s.
A short description of series [7]: Radical cation stability by UV-vis absorption spectroscopy. It counts as physicochemical. Particulars: 0.167 mM radical cation in DCM, oxidation with TBPA-SbCl6, monitored 5 h. An excerpt:
The stability of the radical cation—typically the more reactive form of the electro-active material—can be monitored using UV-vis absorption spectroscopy as these species absorb light in the visible region. This method has proven to be useful for the evaluation of redox shuttle candidates for overcharge protection in LIBs, another application in which the radical cation is involved in electron transfer. The stability of the EPT, MEPT, and MEEPT radical cations were compared in dilute dichloromethane solutions after generation through chemical oxidation with tris(4-bromophenyl)aminium hexachloroantimonate (TBPA-SbCl6).
UV-vis spectra were collected using optical glass cuvettes (Starna) with 1 cm path length with an Agilent 8453 diode array spectrometer. Radical cations were generated in anhydrous DCM by the addition of a 1 mL DCM solution of 0.50 mM TBPA-SbCl6 to a 2 mL DCM solution containing 2.5 mM analyte to produce a final solution containing 0.17 mM radical cation with 1.7 mM analyte, which generates 0.17 mM analyte radical cation with a 9-fold excess of neutral analyte. The cuvettes were capped, and spectra were collected for 5 h.

For `CCN1c2ccc(C(F)(F)F)cc2Sc2cc(C(F)(F)F)ccc21` [BCF3EPT, 3,7-bis(trifluoromethyl)-N-ethylphenothiazine], the “Solubility in organic solvents and electrolytes” value in series [1] (organic solvents and electrolytes) is 1500 to 2000 mM.

Consider `CCN1c2ccccc2Sc2ccccc21` [EPT, N-ethylphenothiazine, reference compound], for which, in series [2] (0.5 M LiBF4 in PC), the “Solubility 0.5M LiBF4 in PC” value was at most 0.1M. Moreover, the “E1/2^+/0 vs. Li^+/0, LiBF4 in PC” value in series [3] amounted to 3.60 V. Also, in series [4], the “Diffusion Coefficient, neutral, TBA-PF6 in DCM” value was 3.9 ×10^−6 cm^2s^−1; the “Diffusion Coefficient, neutral, LiBF4 in PC” value is given as 1.5 ×10^−6 cm^2s^−1; the “Diffusion Coefficient, neutral, LiPF6 in EC/EMC” value is given as 1.0 ×10^−6 cm^2s^−1; the “Diffusion Coefficient, oxidized, TBA-PF6 in DCM” value is on record as 2.4 ×10^−6 cm^2s^−1. In series [4], the “Diffusion Coefficient, oxidized, LiBF4 in PC” value is given as 1.4 ×10^−6 cm^2s^−1 and the “Diffusion Coefficient, oxidized, LiPF6 in EC/EMC” value is listed as 0.7 ×10^−6 cm^2s^−1. For the same molecule, the “Solubility in organic solvents” value in series [1] (organic solvents) is recorded as “ca. 0.1 M”. The “Oxidation potential vs. Li^+/0” value in series [5] is listed as “ca. 3.5 V”. Also, in series [6], the “E1/2^+/0 vs. Cp2Fe^+/0 in TBA-PF6 in DCM” value amounted to 0.27 V and the “E1/2^+/0 vs. Li^+/0, LiPF6 in EC/EMC” value is recorded as 3.51 V. For the same molecule, the “Radical cation stability, change of absorption spectra” value (shortened to “Radical cation stability, change”) in series [7] is recorded as “remain almost unchanged”.

Turning to `COCCOCCN1c2ccccc2Sc2ccccc21` [MEEPT, N-[2-(2-methoxyethoxy)ethyl]phenothiazine], the “Concentration corresponding to 50 wt. % miscibility” value in series [2] is reported as “ca. 2 M”. In series [3], the “E1/2^+/0 vs. Li^+/0, LiBF4 in PC” value was determined as 3.64 V; the “Oxidation potential higher than EPT, LiPF6/EC/EMC” value is reported as 0.09 V; the “Oxidation potential higher than EPT, TBA-PF6/DCM” value worked out at 0.02 V. In series [4], the “Diffusion Coefficient, neutral, TBA-PF6 in DCM” value is 2.5 ×10^−6 cm^2s^−1; the “Diffusion Coefficient, neutral, LiBF4 in PC” value is 0.7, 0.7 ×10^−6 cm^2s^−1; the “Diffusion Coefficient, neutral, LiPF6 in EC/EMC” value is recorded as 0.2 ×10^−6 cm^2s^−1; the “Diffusion Coefficient, oxidized, TBA-PF6 in DCM” value was 1.6 ×10^−6 cm^2s^−1. Also, in series [4], the “Diffusion Coefficient, oxidized, LiBF4 in PC” value is 0.7, 0.7 ×10^−6 cm^2s^−1 and the “Diffusion Coefficient, oxidized, LiPF6 in EC/EMC” value was 0.1 ×10^−6 cm^2s^−1. In series [6], the “E1/2^+/0 vs. Cp2Fe^+/0 in TBA-PF6 in DCM” value is 0.29 V and the “E1/2^+/0 vs. Li^+/0, LiPF6 in EC/EMC” value came out at 3.60 V. Further, in series [7], the “Radical cation stability, change” value is “remain almost unchanged”.

On to `COCCN1c2ccccc2Sc2ccccc21` [MEPT, N-(2-methoxyethyl)phenothiazine], for which, in series [2], the “Concentration corresponding to 50 wt. % miscibility” value is “ca. 2 M”. In series [3], the “E1/2^+/0 vs. Li^+/0, LiBF4 in PC” value amounted to 3.64 V; the “Oxidation potential higher than EPT, LiPF6/EC/EMC” value is 0.06 V; the “Oxidation potential higher than EPT, TBA-PF6/DCM” value is given as 0.03 V. Besides, in series [4], the “Diffusion Coefficient, neutral, TBA-PF6 in DCM” value is 3.7 ×10^−6 cm^2s^−1; the “Diffusion Coefficient, neutral, LiBF4 in PC” value is 1.1 ×10^−6 cm^2s^−1; the “Diffusion Coefficient, neutral, LiPF6 in EC/EMC” value is recorded as 0.4 ×10^−6 cm^2s^−1; the “Diffusion Coefficient, oxidized, TBA-PF6 in DCM” value is on record as 2.6 ×10^−6 cm^2s^−1. Further, in series [4], the “Diffusion Coefficient, oxidized, LiBF4 in PC” value was 1.0 ×10^−6 cm^2s^−1 and the “Diffusion Coefficient, oxidized, LiPF6 in EC/EMC” value is reported as 0.2 ×10^−6 cm^2s^−1. For the same molecule, in series [6], the “E1/2^+/0 vs. Cp2Fe^+/0 in TBA-PF6 in DCM” value came out at 0.30 V and the “E1/2^+/0 vs. Li^+/0, LiPF6 in EC/EMC” value is recorded as 3.56 V. In series [7], the “Radical cation stability, change” value was “remain almost unchanged”.
